Publication PMC6199309, “A therapeutic approach to pantothenate kinase associated neurodegeneration” (Nature Communications, 2018)

How the values were obtained:
PIK3CA = target: T1, PIK3CA (Homo sapiens, UniProt P42336); assay: KINOMEscan; assay type: binding; conditions: read-out: %Ctrl @ 10000nM
T1 construct: purchased DiscoverX KINOMEscan

RET(V804M) = target: T2, RET(V804M) (Homo sapiens, UniProt P07949, V804M); assay: KINOMEscan; assay type: binding; conditions: read-out: %Ctrl @ 10000nM
T2 construct: purchased DiscoverX KINOMEscan

MARK1 = target: T3, MARK1 (Homo sapiens, UniProt Q9P0L2); assay: KINOMEscan; assay type: binding; conditions: read-out: %Ctrl @ 10000nM
T3 construct: purchased DiscoverX KINOMEscan

PLK1 = target: T4, PLK1 (Homo sapiens, UniProt P53350); assay: KINOMEscan; assay type: binding; conditions: read-out: %Ctrl @ 10000nM
T4 construct: purchased DiscoverX KINOMEscan

EGFR(G719S) = target: T5, EGFR(G719S) (Homo sapiens, UniProt P00533, G719S); assay: KINOMEscan; assay type: binding; conditions: read-out: %Ctrl @ 10000nM
T5 construct: purchased DiscoverX KINOMEscan

WNK1 = target: T6, WNK1 (Homo sapiens, UniProt Q9H4A3); assay: KINOMEscan; assay type: binding; conditions: read-out: %Ctrl @ 10000nM
T6 construct: DNA label for qPCR (T7 phage fusion or DNA tag); purchased DiscoverX scanMAX; host or cells: E. coli BL21-derived (T7 phage) or HEK-293

TSSK1B = target: T7, TSSK1B (Homo sapiens, UniProt Q9BXA7); assay: KINOMEscan; assay type: binding; conditions: read-out: %Ctrl @ 10000nM
T7 construct: DNA label for qPCR (T7 phage fusion or DNA tag); purchased DiscoverX scanMAX; host or cells: E. coli BL21-derived (T7 phage) or HEK-293

PDGFRA = target: T8, PDGFRA (Homo sapiens, UniProt P16234); assay: KINOMEscan; assay type: binding; conditions: read-out: %Ctrl @ 10000nM
T8 construct: purchased DiscoverX KINOMEscan

EGFR = target: T9, EGFR (Homo sapiens, UniProt P00533); assay: KINOMEscan; assay type: binding; conditions: read-out: %Ctrl @ 10000nM
T9 construct: purchased DiscoverX KINOMEscan

TGFBR1 = target: T10, TGFBR1 (Homo sapiens, UniProt P36897); assay: KINOMEscan; assay type: binding; conditions: read-out: %Ctrl @ 10000nM
T10 construct: purchased DiscoverX KINOMEscan

EPHA4 = target: T11, EPHA4 (Homo sapiens, UniProt P54764); assay: KINOMEscan; assay type: binding; conditions: read-out: %Ctrl @ 10000nM
T11 construct: purchased DiscoverX KINOMEscan

PFPK5(P.falciparum) = target: T12, PFPK5(P.falciparum) (Plasmodium falciparum, UniProt P61075); assay: KINOMEscan; assay type: binding; conditions: read-out: %Ctrl @ 10000nM
T12 construct: purchased DiscoverX KINOMEscan

CDK11 = target: T13, CDK11 (Homo sapiens, UniProt Q9BWU1); assay: KINOMEscan; assay type: binding; conditions: read-out: %Ctrl @ 10000nM
T13 construct: purchased DiscoverX KINOMEscan

HEK293T cells = assay: Intracellular CoA levels in transfected HEK293T cells; assay type: cell-based, human; conditions: 10 μM, 24 h
Procedure: Chloroform 1.5 ml, 1.2 ml water and 30 pmol of [^13C2]acetyl-CoA (Sigma) was added, and centrifuged at 2000×g for 10 min. The top layer was loaded on a 2-(2-pyridyl) ethyl solid phase extraction column which was equilibrated with 1 ml 50% methanol/2% acetic acid. The column was washed twice with 1 ml 50% methanol/2% acetic acid and 1 ml water. […] Samples were resuspended in 90% methanol containing 15 mM ammonium hydroxide.

PKAC-alpha = target: T14, PKAC-alpha (Homo sapiens, UniProt P17612); assay: KINOMEscan; assay type: binding; conditions: read-out: %Ctrl @ 10000nM
T14 construct: purchased DiscoverX KINOMEscan

SYK = target: T15, SYK (Homo sapiens, UniProt P43405); assay: KINOMEscan; assay type: binding; conditions: read-out: %Ctrl @ 10000nM
T15 construct: purchased DiscoverX KINOMEscan

PIP5K2C = target: T16, PIP5K2C (Homo sapiens, UniProt Q8TBX8); assay: KINOMEscan; assay type: binding; conditions: read-out: %Ctrl @ 10000nM
T16 construct: purchased DiscoverX KINOMEscan

ACVR1 = target: T17, ACVR1 (Homo sapiens, UniProt Q04771); assay: KINOMEscan; assay type: binding; conditions: read-out: %Ctrl @ 10000nM
T17 construct: purchased DiscoverX KINOMEscan

PRKX = target: T18, PRKX (Homo sapiens, UniProt P51817); assay: KINOMEscan; assay type: binding; conditions: read-out: %Ctrl @ 10000nM
T18 construct: purchased DiscoverX KINOMEscan

MYLK4 = target: T19, MYLK4 (Homo sapiens, UniProt Q86YV6); assay: KINOMEscan; assay type: binding; conditions: read-out: %Ctrl @ 10000nM
T19 construct: purchased DiscoverX KINOMEscan

CTK = target: T20, CTK (Homo sapiens, UniProt P42679); assay: KINOMEscan; assay type: binding; conditions: read-out: %Ctrl @ 10000nM
T20 construct: purchased DiscoverX KINOMEscan

CLK1 = target: T21, CLK1 (Homo sapiens, UniProt P49759); assay: KINOMEscan; assay type: binding; conditions: read-out: %Ctrl @ 10000nM
T21 construct: purchased DiscoverX KINOMEscan

[1] = target: T22, ABL1(F317I)-phosphorylated (Homo sapiens, UniProt P00519, F317I); assay: KINOMEscan; assay type: binding; conditions: read-out: %Ctrl @ 10000nM
T22 construct: purchased DiscoverX KINOMEscan

PKNB(M.tuberculosis) = target: T23, PKNB(M.tuberculosis) (Mycobacterium tuberculosis, UniProt P9WI81); assay: KINOMEscan; assay type: binding; conditions: read-out: %Ctrl @ 10000nM
T23 construct: purchased DiscoverX KINOMEscan

PIK3CA(H1047Y) = target: T24, PIK3CA(H1047Y) (Homo sapiens, UniProt P42336, H1047Y); assay: KINOMEscan; assay type: binding; conditions: read-out: %Ctrl @ 10000nM
T24 construct: purchased DiscoverX KINOMEscan

DRAK2 = target: T25, DRAK2 (Homo sapiens, UniProt O94768); assay: KINOMEscan; assay type: binding; conditions: read-out: %Ctrl @ 10000nM
T25 construct: purchased DiscoverX KINOMEscan

ASK1 = target: T26, ASK1 (Homo sapiens, UniProt Q99683); assay: KINOMEscan; assay type: binding; conditions: read-out: %Ctrl @ 10000nM
T26 construct: purchased DiscoverX KINOMEscan

MKNK2 = target: T27, MKNK2 (Homo sapiens, UniProt Q9HBH9); assay: KINOMEscan; assay type: binding; conditions: read-out: %Ctrl @ 10000nM
T27 construct: purchased DiscoverX KINOMEscan

RIOK2 = target: T28, RIOK2 (Homo sapiens, UniProt Q9BVS4); assay: KINOMEscan; assay type: binding; conditions: read-out: %Ctrl @ 10000nM
T28 construct: purchased DiscoverX KINOMEscan

PKN1 = target: T29, PKN1 (Homo sapiens, UniProt Q16512); assay: KINOMEscan; assay type: binding; conditions: read-out: %Ctrl @ 10000nM
T29 construct: purchased DiscoverX KINOMEscan

PLK4 = target: T30, PLK4 (Homo sapiens, UniProt O00444); assay: KINOMEscan; assay type: binding; conditions: read-out: %Ctrl @ 10000nM
T30 construct: purchased DiscoverX KINOMEscan

CDK3 = target: T31, CDK3 (Homo sapiens, UniProt Q00526); assay: KINOMEscan; assay type: binding; conditions: read-out: %Ctrl @ 10000nM
T31 construct: purchased DiscoverX KINOMEscan

BIKE = target: T32, BIKE (Homo sapiens, UniProt Q9NSY1); assay: KINOMEscan; assay type: binding; conditions: read-out: %Ctrl @ 10000nM
T32 construct: purchased DiscoverX KINOMEscan

MST4 = target: T33, MST4 (Homo sapiens, UniProt Q9P289); assay: KINOMEscan; assay type: binding; conditions: read-out: %Ctrl @ 10000nM
T33 construct: purchased DiscoverX KINOMEscan

IRAK1 = target: T34, IRAK1 (Homo sapiens, UniProt P51617); assay: KINOMEscan; assay type: binding; conditions: read-out: %Ctrl @ 10000nM
T34 construct: purchased DiscoverX KINOMEscan

LIMK2 = target: T35, LIMK2 (Homo sapiens, UniProt P53671); assay: KINOMEscan; assay type: binding; conditions: read-out: %Ctrl @ 10000nM
T35 construct: purchased DiscoverX KINOMEscan

MAP3K15 = target: T36, MAP3K15 (Homo sapiens, UniProt Q6ZN16); assay: KINOMEscan; assay type: binding; conditions: read-out: %Ctrl @ 10000nM
T36 construct: purchased DiscoverX KINOMEscan

MERTK = target: T37, MERTK (Homo sapiens, UniProt Q12866); assay: KINOMEscan; assay type: binding; conditions: read-out: %Ctrl @ 10000nM
T37 construct: purchased DiscoverX KINOMEscan

p38-delta = target: T38, p38-delta (Homo sapiens, UniProt O15264); assay: KINOMEscan; assay type: binding; conditions: read-out: %Ctrl @ 10000nM
T38 construct: purchased DiscoverX KINOMEscan

EPHA8 = target: T39, EPHA8 (Homo sapiens, UniProt P29322); assay: KINOMEscan; assay type: binding; conditions: read-out: %Ctrl @ 10000nM
T39 construct: purchased DiscoverX KINOMEscan

CDK4-cyclinD3 = target: T40, CDK4-cyclinD3 (Homo sapiens, UniProt P11802); assay: KINOMEscan; assay type: binding; conditions: read-out: %Ctrl @ 10000nM
T40 construct: purchased DiscoverX KINOMEscan

EIF2AK1 = target: T41, EIF2AK1 (Homo sapiens, UniProt Q9BQI3); assay: KINOMEscan; assay type: binding; conditions: read-out: %Ctrl @ 10000nM
T41 construct: purchased DiscoverX KINOMEscan

ROCK1 = target: T42, ROCK1 (Homo sapiens, UniProt Q13464); assay: KINOMEscan; assay type: binding; conditions: read-out: %Ctrl @ 10000nM
T42 construct: purchased DiscoverX KINOMEscan

T35 sequence (P53671 whole entry): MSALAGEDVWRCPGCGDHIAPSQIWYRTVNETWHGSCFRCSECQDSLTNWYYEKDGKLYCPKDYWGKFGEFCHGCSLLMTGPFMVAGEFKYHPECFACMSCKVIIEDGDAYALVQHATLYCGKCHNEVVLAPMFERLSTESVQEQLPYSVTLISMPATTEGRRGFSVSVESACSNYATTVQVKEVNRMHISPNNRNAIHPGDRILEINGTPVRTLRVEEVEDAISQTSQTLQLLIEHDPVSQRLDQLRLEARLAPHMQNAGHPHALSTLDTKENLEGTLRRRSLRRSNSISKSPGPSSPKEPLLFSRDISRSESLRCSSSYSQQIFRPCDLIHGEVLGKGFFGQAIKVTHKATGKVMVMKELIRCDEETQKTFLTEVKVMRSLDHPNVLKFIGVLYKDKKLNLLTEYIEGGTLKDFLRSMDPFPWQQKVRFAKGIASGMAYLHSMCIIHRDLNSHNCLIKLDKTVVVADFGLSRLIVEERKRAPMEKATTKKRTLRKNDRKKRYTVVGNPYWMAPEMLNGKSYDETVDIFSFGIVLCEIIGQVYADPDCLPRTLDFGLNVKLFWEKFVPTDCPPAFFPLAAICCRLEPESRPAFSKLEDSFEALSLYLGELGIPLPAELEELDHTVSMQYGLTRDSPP
T27 sequence (Q9HBH9 whole entry): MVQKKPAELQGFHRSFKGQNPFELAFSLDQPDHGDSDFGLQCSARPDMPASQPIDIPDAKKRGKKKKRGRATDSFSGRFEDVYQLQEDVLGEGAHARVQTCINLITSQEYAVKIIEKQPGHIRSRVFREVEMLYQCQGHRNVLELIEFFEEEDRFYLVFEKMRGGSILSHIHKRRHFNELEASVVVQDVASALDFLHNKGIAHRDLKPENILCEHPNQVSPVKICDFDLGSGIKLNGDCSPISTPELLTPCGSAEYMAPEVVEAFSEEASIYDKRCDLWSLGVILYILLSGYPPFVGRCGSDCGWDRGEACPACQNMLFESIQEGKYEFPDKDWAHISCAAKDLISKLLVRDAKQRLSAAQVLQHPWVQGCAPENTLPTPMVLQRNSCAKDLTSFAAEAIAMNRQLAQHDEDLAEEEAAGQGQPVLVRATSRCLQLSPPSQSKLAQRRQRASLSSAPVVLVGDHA
T13 sequence (Q9BWU1 whole entry): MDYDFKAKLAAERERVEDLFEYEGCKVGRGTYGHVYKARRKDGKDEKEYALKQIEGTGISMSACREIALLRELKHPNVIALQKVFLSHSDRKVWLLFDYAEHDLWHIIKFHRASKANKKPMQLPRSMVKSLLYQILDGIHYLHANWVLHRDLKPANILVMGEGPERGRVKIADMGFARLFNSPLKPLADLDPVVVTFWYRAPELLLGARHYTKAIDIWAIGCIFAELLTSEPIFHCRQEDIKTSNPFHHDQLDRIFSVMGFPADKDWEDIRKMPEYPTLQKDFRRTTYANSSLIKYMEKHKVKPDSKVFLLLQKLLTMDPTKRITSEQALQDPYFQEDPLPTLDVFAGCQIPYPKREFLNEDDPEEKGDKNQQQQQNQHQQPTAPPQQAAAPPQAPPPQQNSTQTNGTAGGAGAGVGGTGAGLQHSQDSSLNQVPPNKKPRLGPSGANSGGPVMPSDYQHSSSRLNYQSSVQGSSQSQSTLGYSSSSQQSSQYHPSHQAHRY
T12 sequence (P61075 whole entry): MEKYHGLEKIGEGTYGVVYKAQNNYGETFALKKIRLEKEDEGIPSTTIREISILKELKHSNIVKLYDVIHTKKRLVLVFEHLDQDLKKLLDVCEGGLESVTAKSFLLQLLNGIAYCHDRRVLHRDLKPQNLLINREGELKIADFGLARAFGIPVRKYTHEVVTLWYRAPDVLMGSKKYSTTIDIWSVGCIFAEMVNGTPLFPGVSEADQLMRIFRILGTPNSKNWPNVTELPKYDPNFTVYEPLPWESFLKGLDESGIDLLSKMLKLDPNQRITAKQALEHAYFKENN
T21 sequence (P49759 whole entry): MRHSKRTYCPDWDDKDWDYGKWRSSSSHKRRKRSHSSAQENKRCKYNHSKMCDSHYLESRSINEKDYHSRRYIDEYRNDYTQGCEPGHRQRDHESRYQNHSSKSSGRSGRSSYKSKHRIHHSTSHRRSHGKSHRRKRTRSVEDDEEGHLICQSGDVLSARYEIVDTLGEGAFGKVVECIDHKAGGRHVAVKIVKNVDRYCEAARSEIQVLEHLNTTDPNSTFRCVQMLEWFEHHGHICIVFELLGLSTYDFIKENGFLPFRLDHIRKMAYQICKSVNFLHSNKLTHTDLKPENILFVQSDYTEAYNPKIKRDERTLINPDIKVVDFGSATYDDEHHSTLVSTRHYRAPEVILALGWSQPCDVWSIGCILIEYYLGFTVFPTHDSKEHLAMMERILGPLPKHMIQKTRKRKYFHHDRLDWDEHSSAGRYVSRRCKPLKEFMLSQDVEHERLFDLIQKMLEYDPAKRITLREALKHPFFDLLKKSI
T2 sequence (P07949 29-1114 V804M): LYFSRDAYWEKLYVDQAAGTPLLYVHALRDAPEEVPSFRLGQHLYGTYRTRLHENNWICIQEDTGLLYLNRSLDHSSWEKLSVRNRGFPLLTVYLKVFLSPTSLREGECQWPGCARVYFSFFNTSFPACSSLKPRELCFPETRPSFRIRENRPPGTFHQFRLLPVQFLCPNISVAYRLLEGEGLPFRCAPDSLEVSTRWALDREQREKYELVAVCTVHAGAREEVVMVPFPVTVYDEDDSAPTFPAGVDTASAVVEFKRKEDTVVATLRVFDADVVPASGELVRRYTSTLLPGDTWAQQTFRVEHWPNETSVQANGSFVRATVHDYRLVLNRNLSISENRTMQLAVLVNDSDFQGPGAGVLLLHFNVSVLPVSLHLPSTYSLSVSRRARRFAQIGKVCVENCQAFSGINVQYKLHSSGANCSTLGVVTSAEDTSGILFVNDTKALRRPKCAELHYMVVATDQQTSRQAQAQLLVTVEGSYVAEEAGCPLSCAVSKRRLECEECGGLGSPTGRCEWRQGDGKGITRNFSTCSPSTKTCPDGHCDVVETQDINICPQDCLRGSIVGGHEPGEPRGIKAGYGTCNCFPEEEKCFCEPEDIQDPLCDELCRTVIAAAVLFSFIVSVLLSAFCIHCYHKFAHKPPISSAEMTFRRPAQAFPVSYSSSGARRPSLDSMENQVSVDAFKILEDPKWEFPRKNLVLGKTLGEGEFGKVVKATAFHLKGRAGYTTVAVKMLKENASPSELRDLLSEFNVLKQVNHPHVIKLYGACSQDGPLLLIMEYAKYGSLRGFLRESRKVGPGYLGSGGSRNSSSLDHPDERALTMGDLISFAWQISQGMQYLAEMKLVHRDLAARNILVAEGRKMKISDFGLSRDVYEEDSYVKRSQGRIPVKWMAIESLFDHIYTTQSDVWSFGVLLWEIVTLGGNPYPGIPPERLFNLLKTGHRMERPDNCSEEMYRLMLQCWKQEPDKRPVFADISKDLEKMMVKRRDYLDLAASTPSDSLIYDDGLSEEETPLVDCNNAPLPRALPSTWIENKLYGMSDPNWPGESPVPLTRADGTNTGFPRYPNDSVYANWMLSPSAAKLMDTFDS
T31 sequence (Q00526 whole entry): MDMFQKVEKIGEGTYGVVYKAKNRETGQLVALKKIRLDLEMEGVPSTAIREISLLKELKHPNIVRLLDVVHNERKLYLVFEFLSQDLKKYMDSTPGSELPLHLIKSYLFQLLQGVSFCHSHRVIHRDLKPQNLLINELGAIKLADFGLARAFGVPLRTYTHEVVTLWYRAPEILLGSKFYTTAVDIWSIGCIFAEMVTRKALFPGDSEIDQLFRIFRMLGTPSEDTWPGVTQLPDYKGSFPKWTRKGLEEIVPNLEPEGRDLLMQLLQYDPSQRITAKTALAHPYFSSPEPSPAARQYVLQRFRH
T29 sequence (Q16512 whole entry): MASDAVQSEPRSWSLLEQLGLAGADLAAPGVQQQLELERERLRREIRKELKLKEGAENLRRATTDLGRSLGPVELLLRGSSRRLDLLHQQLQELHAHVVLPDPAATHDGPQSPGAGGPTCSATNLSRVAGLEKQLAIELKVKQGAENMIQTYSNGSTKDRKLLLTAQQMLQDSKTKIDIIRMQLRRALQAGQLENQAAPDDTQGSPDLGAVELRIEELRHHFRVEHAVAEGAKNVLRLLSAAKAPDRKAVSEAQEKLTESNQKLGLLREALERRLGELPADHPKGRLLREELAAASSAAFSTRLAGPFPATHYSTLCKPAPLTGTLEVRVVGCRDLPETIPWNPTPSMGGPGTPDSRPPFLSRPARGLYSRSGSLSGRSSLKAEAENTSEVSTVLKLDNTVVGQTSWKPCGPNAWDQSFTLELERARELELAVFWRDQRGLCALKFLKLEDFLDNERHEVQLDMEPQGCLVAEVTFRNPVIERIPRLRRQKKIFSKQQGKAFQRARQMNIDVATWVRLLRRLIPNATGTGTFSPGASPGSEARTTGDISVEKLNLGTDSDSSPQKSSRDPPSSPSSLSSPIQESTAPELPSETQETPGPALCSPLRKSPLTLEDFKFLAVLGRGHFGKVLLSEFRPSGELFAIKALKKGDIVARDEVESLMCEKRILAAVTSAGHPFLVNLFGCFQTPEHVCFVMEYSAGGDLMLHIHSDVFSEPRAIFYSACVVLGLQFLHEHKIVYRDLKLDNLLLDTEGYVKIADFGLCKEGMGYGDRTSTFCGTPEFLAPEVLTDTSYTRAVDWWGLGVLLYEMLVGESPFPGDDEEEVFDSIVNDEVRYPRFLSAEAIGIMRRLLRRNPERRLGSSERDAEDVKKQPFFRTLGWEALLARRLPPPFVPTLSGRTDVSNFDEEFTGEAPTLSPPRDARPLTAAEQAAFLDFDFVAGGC

With CC(C)c1ccc(CC(=O)N2CCN(c3ccc(C#N)nn3)CC2)cc1 [PZ-2891, 6-(4-(2-(4-isopropylphenyl)acetyl)piperazin-1-yl)pyridazine-3-carbonitrile] the remaining binding at 10 µM (PIK3CA) was 95%, the remaining binding at 10 µM (RET(V804M)) was 95% and the remaining binding at 10 µM (MARK1) was 77%. It also gave a remaining binding at 10 µM (PLK1) of 85%, a remaining binding at 10 µM (EGFR(G719S)) of 91% and a remaining binding at 10 µM (WNK1) of 100%. It also gave a remaining binding at 10 µM (TSSK1B) of 99%, a remaining binding at 10 µM (PDGFRA) of 70% and a remaining binding at 10 µM (EGFR) of 78%. For the same compound, the remaining binding at 10 µM (TGFBR1) was 99%, the remaining binding at 10 µM (EPHA4) was 93% and the remaining binding at 10 µM (PFPK5(P.falciparum)) was 99%. For the same compound, the remaining binding at 10 µM (CDK11) was 78%, the “intracellular CoA, control (empty vector) HEK293T cells” value (HEK293T cells) was “significantly increased the levels of intracellular CoA” and the remaining binding at 10 µM (PKAC-alpha) was 87%. The remaining binding at 10 µM (SYK) was 82%, the remaining binding at 10 µM (PIP5K2C) was 85% and the remaining binding at 10 µM (ACVR1) was 88%. It also gave a remaining binding at 10 µM (PRKX) of 70%, a remaining binding at 10 µM (MYLK4) of 92% and a remaining binding at 10 µM (CTK) of 77%. The remaining binding at 10 µM (CLK1) was 75%, the remaining binding at 10 µM [1] was 89% and the remaining binding at 10 µM (PKNB(M.tuberculosis)) was 74%. It also gave a remaining binding at 10 µM (PIK3CA(H1047Y)) of 46%, a remaining binding at 10 µM (DRAK2) of 95% and a remaining binding at 10 µM (ASK1) of 74%. The remaining binding at 10 µM (MKNK2) was 79%, the remaining binding at 10 µM (RIOK2) was 86% and the remaining binding at 10 µM (PKN1) was 69%. The remaining binding at 10 µM (PLK4) was 88%, the remaining binding at 10 µM (CDK3) was 97% and the remaining binding at 10 µM (BIKE) was 100%. It also gave a remaining binding at 10 µM (MST4) of 91%, a remaining binding at 10 µM (IRAK1) of 91% and a remaining binding at 10 µM (LIMK2) of 95%. The remaining binding at 10 µM (MAP3K15) was 92%, the remaining binding at 10 µM (MERTK) was 95% and the remaining binding at 10 µM (p38-delta) was 76%. It also gave a remaining binding at 10 µM (EPHA8) of 95%, a remaining binding at 10 µM (CDK4-cyclinD3) of 71% and a remaining binding at 10 µM (EIF2AK1) of 95%. The remaining binding at 10 µM (ROCK1) was 100%.
